This passage reports AC50 results from PubChem BioAssay AID1259418 (Broad Institute, 2018).

Structures are written as SMILES. Values joined by “and” are separate entries in the source; they are usually repeats but may differ in a detail not shown here. Equal entries are not always repeated. Results filed as inconclusive are left out. Active and inactive are the calls of the source.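 How the source made its calls: active means fitted half-maximal concentration of signal decrease at or below twice the sample's top tested concentration; inconclusive means flat curve between -70 and -30 percent, or poor fit; inactive means flat within 30 percent, signal rise, or potency above limit.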 A value given as a limit tells only on which side of the number the result lay.

This assay concerns the target T. gondii ME49Luc in IFN-y HeLa, luciferase, 72 h. Kind of assay: T. gondii growth inhibition with IFN-gamma, dose response, cell-based, ME49Luc, HeLa, luciferase, 72 h (AID 1259418).

With `COc1ccc(NC(=O)N2CCCCN3[C@H](C2)[C@@H](c2ccc(-c4ccccc4F)cc2)[C@@H]3CO)cc1`, the AC50 (as a rule, the midpoint of the concentration-response curve, whichever way the signal moves) is 32.8 µM.
`Cc1nc(OCC(=O)Nc2cc(F)ccc2F)c2ccccc2n1`: the AC50 was > 39 µM (inactive).
Under `O=C(Nc1cccc(F)c1)N1CCCCN2[C@H](C1)[C@@H](c1ccc(C#Cc3cccnc3)cc1)[C@@H]2CO` stands 10.3 µM.
Under `CC(C)CC#Cc1ccc([C@@H]2[C@@H](CO)N3CCCCN(C(=O)Nc4ccccc4)C[C@@H]23)cc1` stands 22.5 µM and 15.4 µM; under `CC/C(=C(\c1ccccc1)c1ccc(OCCN(C)C)cc1)c1ccccc1`, 35.2 µM.
Consider `O=C(CC1Nc2c3ccccc3nc(=S)n2C1=O)N1CCN(c2ccccc2F)CC1` (centres undefined), for which the AC50 was 29.7 µM.
In the case of `Cc1ccc(-c2coc(-c3ccc(NS(=O)(=O)c4ccc(Br)cc4C)cc3)n2)c(C)c1` it was 26.7 µM.
As for `CCCNC(=O)c1cc(-c2cnc(NCc3ccccc3)nc2)cn1C`, the AC50 is 7.07 µM and 17.3 µM.
Under `O=S1(=O)c2ccccc2O[C@H]2CCN(Cc3ccc(Cl)cc3)CC[C@H]2N1CC1CC1` stands 32 µM; under `CCc1cnc(N2[C@@H](C#N)[C@@H](c3ccc(C#Cc4ccccc4F)cc3)[C@@H]2CO)s1`, 17.2 µM; under `CC(C)Cc1ccc(S(=O)(=O)N2CCC3(CC2)NCCN=C3NC2CCCCC2)cc1`, 25.6 µM.
Under `CC(C)n1cnc2c(NCC3CC3)nc(C3CCN(C(=O)c4cccc(F)c4F)CC3)cc21` stands 19.8 µM.
Consider `CCC(C)Nc1nc(-c2ccc(OC)cc2)nc2ccccc12` (centres undefined), for which the AC50 is > 39 µM (inactive).
In the case of `CCCCCCCCCCCCCCCC[n+]1ccccc1` it was 11.5 µM.
Consider `CC(C)CNc1nc2c(cc1C(=O)NCC1CC1)CCN(c1ccncn1)CC2`, for which the AC50 was 19 µM.
In the case of `Cc1cc(C)c(S(=O)(=O)N2CCC3(CC2)NCCN=C3NC2CCCCC2)cc1C` it was 6.34 µM; in that of `CN1c2ccc(C3=CCCCC3)cc2[C@@H]2[C@@H](CCN2C(=O)c2ccc3c(c2)OCO3)[C@@H]1CO`, 19.3 µM.
In the case of `Cc1cccc(-c2nc(Cn3nnc(-c4nc(-c5cccs5)no4)c3C)c(C)o2)c1` it was > 39 µM (inactive).
Under `COc1ccc(OCC(=O)N2CCC3(CC2)Nc2cc(OC)ccc2-n2cccc23)cc1` stands 38.3 µM; under `CC(C)C#Cc1ccc([C@H]2[C@@H](C#N)N(C(=O)c3cccc(F)c3)[C@H]2CO)cc1`, > 39 µM (inactive); under `CCOc1ccc(-c2nc(CN3CCN(C(=O)NC4CCCC4)CC3)c(C)o2)cc1`, 29.5 µM.
Regarding `COc1ccc(-c2nc(C)c(-c3ccc(SCc4cccc(C(F)(F)F)c4)nn3)s2)cc1`, the AC50 was > 39 µM (inactive).
In the case of `Cc1cc(C)c(S(=O)(=O)N2CCC3(CC2)NCCN=C3NCc2cc(F)cc(F)c2)cc1C` it was 7.83 µM; in that of `COc1ccc(S(=O)(=O)N2CSC[C@@H]2C(=O)NCCc2csc(-c3ccccc3)n2)cc1`, 17.6 µM.
Under `CN1C(=O)c2cc(NC(=O)Cc3cccs3)ccc2OC[C@@H]2O[C@H](CC(=O)NCC3CCCCC3)CC[C@@H]21` stands > 39 µM (inactive); under `CC(C)(C)c1ccc(CSC2=Nc3ccccc3C3=NC(CC(=O)NCc4ccco4)C(=O)N23)cc1` (centres undefined), 27.4 µM.
In the case of `Cc1ccc(S(=O)(=O)N2CCC3(CC2)NCCN=C3NC2CCCCCC2)cc1C` it was 18.6 µM; in that of `CCOc1ccccc1N(Cc1nc(-c2ccc(C)cc2)oc1C)S(=O)(=O)c1cccs1`, 9.38 µM; in that of `CCc1cnc(N2[C@H](C#N)[C@H](c3ccc(-c4cccc(F)c4)cc3)[C@H]2CO)s1`, 21.3 µM.
Take `Cc1cc(C)cc(S(=O)(=O)N2CCC3(CC2)NCCN=C3NCc2ccc(F)cc2)c1`: the half-maximal activity concentration (AC50) was 20.5 µM.
Under `C[C@@H]1CN([C@@H](C)CO)C(=O)c2cccc(NC(=O)NC3CCCCC3)c2O[C@H]1CN(C)Cc1ccc(C(F)(F)F)cc1` stands 16 µM; under `Cc1ccccc1N(Cc1nc(-c2ccccc2)oc1C)S(=O)(=O)c1cccs1`, > 39 µM (inactive); under `CCCc1ccc(S(=O)(=O)N2CCC[C@@H]2C(=O)NCCc2csc(-c3ccccc3)n2)cc1`, 3.78 µM and 16 µM.
Under `Cc1ccccc1S(=O)(=O)N1CCCCN2[C@H](C1)[C@@H](c1ccc(C#CCN(C)C)cc1)[C@@H]2CO` stands 20.9 µM.
Under `O=C1CCc2cc(NC(=O)c3ccccc3F)ccc2N1` stands 29.7 µM; under `O=C1NCC(=O)N2CCN(C(=O)Nc3cc(Cl)cc(Cl)c3)CC12` (centres undefined), 20.3 µM; under `CN1C(=O)c2cc(NC(=O)Cc3cccs3)ccc2OC[C@@H]2O[C@H](CC(=O)N[C@H]3CCN(Cc4ccccc4)C3)CC[C@@H]21`, 7.53 µM.
With `Cc1ccc2c(c1)c1ncn(Cc3nc(C(C)C)no3)c(=O)c1n2CC(=O)N1CCCC1`, the half-maximal activity concentration (AC50) was 14.5 µM.
Turning to `COc1ccc(-c2nc(Nc3ccc(CN4CCC(C)CC4)cc3)c3ccccc3n2)cc1`, the AC50 was 9.71 µM and 14.6 µM.
In the case of `CCOc1ccccc1-c1nc(CN(c2cccc(OC)c2)S(=O)(=O)c2ccc(C)cc2)c(C)o1` it was 9.59 µM; in that of `CC(C)C#Cc1ccc([C@@H]2[C@@H](CO)N3C(=O)CN(S(=O)(=O)c4ccccc4)C[C@H]23)cc1`, 19.2 µM.
In the case of `CCN(CCCNC(=O)CC1Nc2c3ccccc3nc(=S)n2C1=O)c1ccccc1` (centres undefined), the AC50 was > 39 µM (inactive).
Under `COCC(=O)Nc1ccc(-c2nc(-c3cc(C)ccc3C)co2)cc1` stands > 39 µM (inactive); under `Cc1ccc(-c2coc(-c3ccc(NC(=O)Nc4cc(F)ccc4F)cc3)n2)cc1`, 27.7 µM; under `COc1ccc(-c2nc(Nc3ccc(CN4CCCCC4)cc3)c3ccccc3n2)cc1`, 12 µM.
For the compound `Cc1ccccc1S(=O)(=O)N1CCCCN2[C@H](C1)[C@H](c1ccc(C#CCN(C)C)cc1)[C@@H]2CO`, the AC50 is 18.6 µM.
Take `Cc1ccccc1-c1ccc(C2[C@@H]3CN(C(=O)C4CCOCC4)C[C@H]2N3)cc1` (some centres undefined): the AC50 is 26.4 µM.
For the compound `COc1cccc(NC(=O)N2CC(=O)N3[C@@H](CO)[C@@H](c4ccc(C#CCC5CCCC5)cc4)[C@@H]3C2)c1`, the concentration at half-maximal activity (AC50) is 22.5 µM.
In the case of `Cc1ccc(S(=O)(=O)N2CCC3(CC2)NCCN=C3NCc2ccc3c(c2)OCO3)cc1C` it was 22.4 µM; in that of `COc1ccccc1C(=O)N1CCC2(CC1)Nc1cc(F)ccc1-n1cccc12`, > 39 µM (inactive); in that of `COc1ccc(-c2nc(Cn3nnc(-c4nc(-c5ccc(OC)c(OC)c5)no4)c3C)c(C)o2)cc1`, 20.6 µM.
In the case of `CCN1CCCC1CNC(=O)C1CCN(Cc2cc3ccccc3n2Cc2ccc(F)cc2)CC1` (centres undefined) it was 21.2 µM; in that of `CCc1ccc(NS(=O)(=O)c2cc3c4c(c2)CCC(=O)N4CCC3)cc1`, 37.7 µM.
In the case of `Cc1ccc(CSC2=Nc3ccccc3C3=NC(CC(=O)NCc4ccc5c(c4)OCO5)C(=O)N23)cc1` (centres undefined) it was > 39 µM (inactive); in that of `CCN(C[C@@H]1N[C@@H](CO)[C@H]1c1ccc(-c2ccc(F)cc2)cc1)C(=O)CN(C)C`, 21.3 µM; in that of `O=S(=O)(c1ccc2c(c1)CCCC2)N1CCC2(CC1)NCCN=C2NCc1cccc(F)c1`, 5.26 µM.
As for `COCCCNc1nc(-c2ccc(OC)cc2)nc2ccccc12`, the AC50 is 20 µM.
In the case of `Cc1ccc(CCNc2nc(-c3ccc(Cl)cc3)nc3ccccc23)cc1` it was 22.7 µM; in that of `c1ccc2c(Oc3nc(Nc4ccc(N5CCOCC5)cc4)c4ncn(C5CCCCC5)c4n3)cccc2c1`, 16.4 µM.
